Among the test systems are RXF 393 renal; A498 renal; SF-268 CNS; CAKI-1 renal; SK-MEL-28 melanoma; DU-145 prostate; COLO 205 colon; T-47D breast; MDA-MB-435; OVCAR-8 ovarian.
Experiment in all cases: growth of human tumour cells (NCI), 48 h

SMILES strings stand for the structures. Values joined by “and” are separate entries in the source; they are usually repeats but may differ in a detail not shown here. Equal values may be shown once.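 Method: 48-hour compound exposure of cells in 96-well plates, five concentrations, linear interpolation of endpoints. GI50 marks 50% less growth. At the TGI there is no net growth.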 Bounds are passed on as bounds.

As for `CN(C)CCCn1nc(N)c2nc3cc(Cl)ccc3nc21`, the TGI with RXF 393 renal is greater than 100 µM; in the assay on A498 renal it was greater than 100 µM; in the assay with SF-268 CNS, greater than 100 µM; in the assay on CAKI-1 renal, greater than 100 µM; in the assay with SK-MEL-28 melanoma it was 35.7 µM; in the assay with DU-145 prostate, greater than 100 µM. For the same molecule, the TGI with COLO 205 colon, in the assay on T-47D breast, with MDA-MB-435 and in the assay with OVCAR-8 ovarian was greater than 100 µM throughout.

`O=C(Nc1ccc(-n2ccc3c(NC(=O)c4ccccc4)ncnc32)cc1)Nc1cccc(Cl)c1Cl`: the GI50 in the assay on RXF 393 renal was 0.796 µM; with A498 renal it was 0.752 µM; in the assay on SF-268 CNS, 1.1 µM; in the assay with CAKI-1 renal it was 3.84 µM; with SK-MEL-28 melanoma, 0.99 µM; in the assay with DU-145 prostate, 1.47 µM. The GI50 in the assay with COLO 205 colon is 1.75 µM; with T-47D breast, 2.17 µM; in the assay on MDA-MB-435, 1.53 µM; in the assay on OVCAR-8 ovarian, 1.07 µM. For the same molecule, the TGI with RXF 393 renal was 1.79 µM; in the assay on A498 renal, 2.04 µM; with SF-268 CNS it was 3.13 µM; in the assay with CAKI-1 renal, 24.9 µM; in the assay on SK-MEL-28 melanoma it was 2.45 µM; in the assay on DU-145 prostate, 3.85 µM. For the same molecule, the TGI was 7.97 µM in the assay with COLO 205 colon, 9.22 µM in the assay on T-47D breast, 8.64 µM with MDA-MB-435 and 2.6 µM in the assay with OVCAR-8 ovarian.

On to `O=C(O)CC1NCc2cc3ccccc3nc21` (centres undefined), for which the TGI with RXF 393 renal, in the assay on A498 renal, in the assay on SF-268 CNS, in the assay on CAKI-1 renal, in the assay on SK-MEL-28 melanoma and in the assay on DU-145 prostate was greater than 100 µM each time. The TGI in the assay on COLO 205 colon, with T-47D breast, with MDA-MB-435 and in the assay with OVCAR-8 ovarian was greater than 100 µM in each case.

`CC(=O)OC[C@@H](OC(C)=O)[C@H](OC(C)=O)[C@@H]1OC(C)(C)O[C@@H]1C1SCCCS1`: the TGI in the assay with RXF 393 renal, in the assay with A498 renal, with SF-268 CNS, in the assay on CAKI-1 renal, with SK-MEL-28 melanoma and in the assay with DU-145 prostate was greater than 100 µM each time. The TGI in the assay with COLO 205 colon, in the assay with T-47D breast, in the assay on MDA-MB-435 and in the assay with OVCAR-8 ovarian was greater than 100 µM throughout.

As to `COc1ccc2cc(CN3CCC(C4CCNCC4)CC3)ccc2c1`, the TGI in the assay on RXF 393 renal is 5.19 µM; in the assay with A498 renal, 14.7 µM; in the assay on SF-268 CNS it was greater than 22.3 µM; with CAKI-1 renal, 6.03 µM; in the assay on SK-MEL-28 melanoma, 3.27 µM; with DU-145 prostate it was 15 µM. The TGI is 3.25 µM in the assay with COLO 205 colon, 5.23 µM with T-47D breast, 3.58 µM in the assay with MDA-MB-435 and 22.1 µM in the assay on OVCAR-8 ovarian.

Regarding `CC(=O)OCC1OC(Oc2cc(C)c(O)cc2C/C=C(\C)CC/C=C(\C)CC(=O)CC(C)C)C(O)C(OC(C)=O)C1OC(C)=O` (centres undefined), the TGI in the assay with RXF 393 renal is 22.6 µM; in the assay with A498 renal, 27.6 µM; in the assay on SF-268 CNS it was greater than 50 µM; in the assay with CAKI-1 renal, greater than 50 µM; in the assay with SK-MEL-28 melanoma, greater than 50 µM; in the assay with DU-145 prostate it was greater than 50 µM. Further, the TGI is 17.3 µM in the assay on COLO 205 colon, 27.3 µM in the assay on T-47D breast, 48.4 µM in the assay with MDA-MB-435 and greater than 50 µM with OVCAR-8 ovarian.

As for `CCCCCCCCCCC1OC([C@@H](O)CC[C@H](O)C2CC[C@@H](CCCCCCCC(O)CC3=CC(C)OC3=O)O2)CCC1O` (some centres undefined), the TGI with RXF 393 renal is greater than 18.6 µM; in the assay on A498 renal, greater than 25 µM; with SF-268 CNS, greater than 25 µM; in the assay on CAKI-1 renal, greater than 25 µM; with SK-MEL-28 melanoma, greater than 25 µM; with DU-145 prostate, greater than 25 µM. Further, the TGI in the assay on COLO 205 colon was greater than 19.8 µM; in the assay with T-47D breast it was greater than 25 µM; with MDA-MB-435, 5.58 µM and > 20.2 µM; in the assay on OVCAR-8 ovarian it was greater than 25 µM. Also, the GI50 with SF-268 CNS was 23.6 µM; in the assay with SK-MEL-28 melanoma it was 5.34 µM; in the assay on COLO 205 colon, 5.47 µM; in the assay with MDA-MB-435, 1.59 µM; in the assay with OVCAR-8 ovarian, 9.96 µM.

As to `CC1OC(OC2C(OC(=O)[C@]34CCC(C)(C)C[C@H]3C3=CC[C@@H]5[C@@]6(C)CC[C@H](OC7OC(C(=O)O)C(O)C(OC8OCC(O)C(O)C8O)C7O)C(C)(C)[C@@H]6CC[C@@]5(C)[C@]3(C)CC4)OCC(O)C2O)C(O)C(OC2OCC(O)C(O)C2O)C1OC1OCC(O)C(OC2OCC(O)C(O)C2O)C1O` (some centres undefined), the TGI in the assay on RXF 393 renal is 37.5 µM and 42.9 µM; in the assay on A498 renal, 4.79 µM and 8.63 µM; with SF-268 CNS, 25.5 µM and 54.7 µM; in the assay on CAKI-1 renal, 18.8 µM and 23.1 µM; in the assay on SK-MEL-28 melanoma, 15.9 µM and 30.8 µM; with DU-145 prostate, 40.6 µM and 85.1 µM. Further, the TGI in the assay on COLO 205 colon is 3.63 µM and 20.4 µM; with T-47D breast it was 51.8 µM and > 100 µM; with MDA-MB-435 it was 20.1 µM and 32 µM; with OVCAR-8 ovarian it was 27.7 µM and 43.1 µM. Also, the GI50 is 5.5 µM and 16.3 µM in the assay with SK-MEL-28 melanoma; 1.8 µM and 7.67 µM in the assay with COLO 205 colon; 9.59 µM and 38.3 µM in the assay with T-47D breast; 7.32 µM and 16.7 µM in the assay on MDA-MB-435.

Take `CCCCCCCCCCCCOCCCOP(=O)([O-])OCC[N+](C)(C)C`: the TGI in the assay on RXF 393 renal is greater than 53.3 µM; with A498 renal, 83.6 µM; in the assay on SF-268 CNS it was 86 µM; in the assay on CAKI-1 renal, 47.5 µM; with SK-MEL-28 melanoma, greater than 92.7 µM; with DU-145 prostate it was greater than 75.1 µM. For the same molecule, the TGI with COLO 205 colon was 31.7 µM; in the assay on T-47D breast, 38 µM; in the assay with MDA-MB-435 it was greater than 70 µM; in the assay with OVCAR-8 ovarian, greater than 80.3 µM.

Take `CCCCON1C[C@H](OC(C)=O)C(OC(C)=O)[C@H](OC(C)=O)C1` (some centres undefined): the TGI with RXF 393 renal, in the assay with A498 renal, in the assay on SF-268 CNS, in the assay on CAKI-1 renal, in the assay with SK-MEL-28 melanoma and in the assay with DU-145 prostate was greater than 100 µM each time. For the same molecule, the TGI in the assay on COLO 205 colon, in the assay on T-47D breast, with MDA-MB-435 and in the assay with OVCAR-8 ovarian was greater than 100 µM each time.

As to `c1c[nH]c(C23C4C5C6C4C2C6C53)n1` (centres undefined), the TGI in the assay with RXF 393 renal, in the assay with A498 renal, in the assay on SF-268 CNS, with CAKI-1 renal, with SK-MEL-28 melanoma and in the assay on DU-145 prostate was greater than 100 µM in each case. The TGI in the assay on COLO 205 colon, with T-47D breast, with MDA-MB-435 and in the assay on OVCAR-8 ovarian was greater than 100 µM throughout.

For `O=C1c2cc(Cl)ccc2NC(=NCCCl)C2CSCN12` (centres undefined), the TGI in the assay on RXF 393 renal, with A498 renal, in the assay on SF-268 CNS, in the assay on CAKI-1 renal, in the assay on SK-MEL-28 melanoma and in the assay on DU-145 prostate was greater than 100 µM in each case. In addition, the TGI with COLO 205 colon, in the assay on T-47D breast, with MDA-MB-435 and in the assay on OVCAR-8 ovarian was greater than 100 µM throughout.

As for `CCOC(=O)C(Cc1cccn1C(=O)OC(C)(C)C)[N+](=O)[O-]` (centres undefined), the TGI in the assay on RXF 393 renal was 34.4 µM; with A498 renal, 40.6 µM; in the assay on SF-268 CNS, greater than 100 µM; in the assay on CAKI-1 renal, 64.5 µM; in the assay on SK-MEL-28 melanoma it was 69 µM; in the assay with DU-145 prostate it was 70.2 µM. Also, the TGI was 41.3 µM in the assay on COLO 205 colon, greater than 100 µM with T-47D breast, 77.1 µM in the assay on MDA-MB-435 and 93 µM in the assay with OVCAR-8 ovarian.

Consider `Oc1ccc(Cl)cc1CN1CCN(Cc2cc(Cl)ccc2O)C1`, for which the TGI was found to be 4.14 µM with RXF 393 renal; 29.4 µM in the assay with A498 renal; 12.8 µM in the assay with SF-268 CNS; 6.48 µM in the assay with CAKI-1 renal; 6.78 µM with SK-MEL-28 melanoma; 11.6 µM with DU-145 prostate. Besides, the TGI in the assay with COLO 205 colon was 5.15 µM; with T-47D breast, 10.9 µM; in the assay with MDA-MB-435 it was 7.92 µM; with OVCAR-8 ovarian it was 2.21 µM.

Consider `O=C(N/N=C1/C(=O)c2c3ccccc3cc3cccc1c23)c1ccccc1`, for which the TGI with RXF 393 renal was 56.3 µM; in the assay on A498 renal it was greater than 57.4 µM; in the assay with SF-268 CNS, greater than 91.9 µM; in the assay on CAKI-1 renal it was 70.1 µM; in the assay with SK-MEL-28 melanoma, greater than 95.6 µM; with DU-145 prostate, greater than 56.4 µM. Moreover, the TGI in the assay on COLO 205 colon was greater than 100 µM; in the assay with T-47D breast, 42 µM; in the assay with MDA-MB-435, greater than 86.7 µM; in the assay on OVCAR-8 ovarian it was greater than 92.3 µM.

For the molecule `Cc1cn([C@@H]2O[C@H](CO[Si](C)(C)C(C)(C)C)[C@]3(O[C@H]3C(=O)NN)[C@H]2O[Si](C)(C)C(C)(C)C)c(=O)[nH]c1=O`, the TGI with RXF 393 renal was greater than 25.2 µM; in the assay on A498 renal, 30.5 µM; in the assay with SF-268 CNS, 12 µM; in the assay on CAKI-1 renal it was 28.2 µM; with SK-MEL-28 melanoma, 25.3 µM; in the assay on DU-145 prostate, 21.8 µM. For the same molecule, the TGI in the assay on COLO 205 colon worked out at 6.74 µM; in the assay with T-47D breast, 6.32 µM; with MDA-MB-435, 23.1 µM; in the assay on OVCAR-8 ovarian it was 19.8 µM.

Turning to `O=[N+]([O-])c1cc2c(cc1/C=N/n1c(CO)nc3ccccc31)OCO2`, the TGI in the assay on RXF 393 renal, in the assay on A498 renal, with SF-268 CNS, with CAKI-1 renal, in the assay on SK-MEL-28 melanoma and in the assay on DU-145 prostate was greater than 100 µM each time. Moreover, the TGI with COLO 205 colon, with T-47D breast, with MDA-MB-435 and with OVCAR-8 ovarian was greater than 100 µM each time.

On to `CC1=Nc2sc3c(c2C2=NCCN12)CCCC3`, for which the TGI is 61 µM in the assay on RXF 393 renal; 90.6 µM in the assay on A498 renal; greater than 100 µM in the assay on SF-268 CNS; 50.6 µM in the assay with CAKI-1 renal; 65.4 µM with SK-MEL-28 melanoma; greater than 100 µM with DU-145 prostate. For the same molecule, the TGI with COLO 205 colon stood at 79.1 µM; in the assay on T-47D breast, 88 µM; with MDA-MB-435, 91.6 µM; in the assay with OVCAR-8 ovarian, 50.6 µM.

The record behind these values is PubChem BioAssay (NCI).
